In paper doi:10.1101/158956v2 (biorxiv, 2017):

How the values were obtained:
EcFumA = biological target: T1, EcFumA (Escherichia coli, UniProt P0AC33); assay: spectrophotometric initial velocity; assay type: biochemical
T1 sequence (P0AC33 2-548): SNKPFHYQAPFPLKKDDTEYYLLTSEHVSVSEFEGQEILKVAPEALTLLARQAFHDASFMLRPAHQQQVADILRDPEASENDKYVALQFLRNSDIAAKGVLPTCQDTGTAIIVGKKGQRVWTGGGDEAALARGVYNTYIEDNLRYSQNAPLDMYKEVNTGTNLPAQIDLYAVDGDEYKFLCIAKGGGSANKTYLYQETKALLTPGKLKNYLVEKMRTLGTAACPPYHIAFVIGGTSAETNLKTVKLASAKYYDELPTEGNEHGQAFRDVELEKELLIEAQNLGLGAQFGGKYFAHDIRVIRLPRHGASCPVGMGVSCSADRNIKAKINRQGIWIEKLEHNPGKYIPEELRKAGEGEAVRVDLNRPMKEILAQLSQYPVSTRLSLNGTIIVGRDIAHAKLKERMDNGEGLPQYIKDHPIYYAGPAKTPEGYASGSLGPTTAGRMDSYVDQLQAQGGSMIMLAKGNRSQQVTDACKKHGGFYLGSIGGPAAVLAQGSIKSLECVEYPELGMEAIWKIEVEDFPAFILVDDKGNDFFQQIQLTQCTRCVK

EcFumC = biological target: T2, EcFumC (Escherichia coli, UniProt P05042); assay: spectrophotometric initial velocity; assay type: biochemical
T2 sequence (P05042 1-467): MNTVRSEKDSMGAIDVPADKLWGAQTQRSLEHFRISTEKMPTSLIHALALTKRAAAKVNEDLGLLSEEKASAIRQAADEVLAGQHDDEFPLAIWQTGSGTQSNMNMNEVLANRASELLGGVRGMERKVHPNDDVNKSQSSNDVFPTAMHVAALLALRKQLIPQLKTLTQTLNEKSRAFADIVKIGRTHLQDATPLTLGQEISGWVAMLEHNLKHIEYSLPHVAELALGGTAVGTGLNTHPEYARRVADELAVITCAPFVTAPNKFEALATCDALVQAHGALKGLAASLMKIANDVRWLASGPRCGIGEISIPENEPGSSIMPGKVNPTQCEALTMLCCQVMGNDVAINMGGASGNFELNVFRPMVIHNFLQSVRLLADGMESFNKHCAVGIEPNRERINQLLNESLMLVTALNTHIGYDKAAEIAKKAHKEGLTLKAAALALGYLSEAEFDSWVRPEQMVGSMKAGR

PfFHΔ40 (PfFΔ40) [1] = biological target: T3, PfFHΔ40 (PfFΔ40) (Plasmodium falciparum, UniProt Q8I2N6); assay: spectrophotometric initial velocity; assay type: biochemical
T3 sequence (Q8I2N6 41-681): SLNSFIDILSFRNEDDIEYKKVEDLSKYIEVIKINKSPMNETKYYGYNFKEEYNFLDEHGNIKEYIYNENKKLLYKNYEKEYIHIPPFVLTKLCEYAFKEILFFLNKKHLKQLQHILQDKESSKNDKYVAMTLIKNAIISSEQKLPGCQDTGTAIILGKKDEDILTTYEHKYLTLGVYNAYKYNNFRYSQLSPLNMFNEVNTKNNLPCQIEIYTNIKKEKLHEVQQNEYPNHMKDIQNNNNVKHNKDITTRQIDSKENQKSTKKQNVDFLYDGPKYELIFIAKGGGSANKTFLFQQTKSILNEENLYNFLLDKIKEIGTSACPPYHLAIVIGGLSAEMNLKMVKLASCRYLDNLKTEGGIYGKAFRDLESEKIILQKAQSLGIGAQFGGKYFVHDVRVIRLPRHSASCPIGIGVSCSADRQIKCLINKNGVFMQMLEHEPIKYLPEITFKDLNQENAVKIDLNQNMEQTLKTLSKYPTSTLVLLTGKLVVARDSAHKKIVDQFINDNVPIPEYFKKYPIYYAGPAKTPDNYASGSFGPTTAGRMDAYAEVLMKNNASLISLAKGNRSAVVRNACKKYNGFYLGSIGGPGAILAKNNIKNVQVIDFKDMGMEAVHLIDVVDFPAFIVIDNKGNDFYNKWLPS

PfFHΔ40 (PfFΔ40) [2] = biological target: T3, PfFHΔ40 (PfFΔ40); assay: spectrophotometric initial velocity, Michaelis-Menten fit; details: 50 mM Tris-HCl pH 8.5, 37 °C
PfFHΔ40 (PfFΔ40) [3] = biological target: T3, PfFHΔ40 (PfFΔ40); assay: spectrophotometric initial velocity, global fit to competitive model; assay type: biochemical
purified protein [4] = substrate: O=C(O)C[C@H](O)C(=O)O; assay: purified protein; details: 50 mM Tris-HCl pH 8.5, 37 °C
purified protein [5] = substrate: C/C(=C\C(=O)O)C(=O)O; assay: purified protein; details: 50 mM Tris-HCl pH 8.5, 37 °C

Work on `O=C(O)C(O)C(O)C(=O)O` (stereo not drawn) [meso-tartrate] yielded a Ki (EcFumA) of 625 µM, a Ki (EcFumC) of 652 µM and a Ki (PfFHΔ40 (PfFΔ40) [1]) of 114 ± 17 µM.

`O=C(O)/C=C/C(=O)O` [fumarate] showed a Km (PfFHΔ40 (PfFΔ40) [2]) of 2600 ± 300 µM.

`O=C(O)CC(S)C(=O)O` (racemic) [DL-mercaptosuccinic acid] was tested, and the Ki (EcFumA) was 2.9 ± 0.22 µM and the Ki (PfFHΔ40 (PfFΔ40) [3]) was 0.548 ± 0.046 µM.

B1: PfFHΔ40 (PfFΔ40) (Plasmodium falciparum 3D7) (protein)
chain: T3 sequence (Q8I2N6 41-681)
With B1 the Km (purified protein [4]) was 1200 ± 100 µM and the Km (purified protein [5]) was 3200 ± 300 µM.
